According to patent US9521846B2, “Template-fixed peptidomimetics with antimicrobial activity” (priority 2006, dated 2016):
Converted amounts (≈) assume the structure as drawn. Where two headings read alike, the source gives them in different places. Non-standard residues stand in square brackets, D forms with d. Residues, ends and D or L forms follow the SMILES beside them. Dab = NCC[C@H](N)C(=O)O

Experiments:
P. aeruginosa ATCC 27853 = format: cell-based, Pseudomonas aeruginosa
Outline: (§1)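 Bacteria were diluted in MH broth containing 0.02% BSA to roughly 10^6 CFU/ml, checked against a 0.5 McFarland standard. This inoculum was then added in equal volume to serially two-fold diluted peptide, following the NCCLS microdilution protocol with slight modifications.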

HELA cells (Acc57) = assay: Cytotoxicity assay, MTT reduction (LC 50, GI 50); format: cell-based
Outline: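 Read-out was MTT reduction (A595) after 48 h peptide exposure (12.5–50 μM, triplicates) of HeLa cells plated at 7.0×10^3/well and precultured 24 h. Growth % was normalised to a time-zero reading. Linear trend interpolation gave the concentration at −50% growth (LC50) and at 50% growth (GI50).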

[1] = test system: human red blood cells (hRBC); assay: Hemolysis; format: cell-based
[2] = test system: Pseudomonas aeruginosa (ATCC 27853); assay: In vivo septicemia assay; parameters: species or system CD-1 mice; details: groups of 6 mice
Procedure: Groups of 6 CD-1 (Crl.) derived male mice weighing 24±2 g were used. The mice were each inoculated intravenously (IV) with an LD90-100 of Pseudomonas aeruginosa (ATCC 27853) (9×10^6 CFU/0.5 ml/mouse) in brain heart infusion broth without 5% mucin. Compound at doses of 5, 2.5, 1, 0.5, 0.25 and 0.1 mg/kg, vehicle (0.9% NaCl, 10 ml/kg) was administered subcutaneously (SC) to test animals at 1 hour after bacterial inoculation. Also, an additional group was treated twice with compound at a dose of 5 mg/kg at 1 and 6 hours after bacterial inoculation. Mortality was recorded once daily for 7 days following the bacterial inoculation and an increase of survival of the animals by 50 percent or more (^3 50%) after the bacterial inoculation, relative to vehicle control, indicates significant antimicrobial effect. The MED (ED50) was determined by nonlinear regression using Graph-Pad Prism (Graph Pad Software, USA).
Septicaemia experiment in mice: LD90-100 of Pseudomonas aeruginosa (ATCC 27853) (9×10^6 CFU/0.5 ml/mouse IV and after 1 h Ex. 1 s.c.
Septicaemia experiment in mice: LD90-100 of Pseudomonas aeruginosa (ATCC 27853) (9×10^6 CFU/0.5 ml/mouse IV), and after 1 and 5 h Ex. 40 s.c.
Septicaemia experiment in mice: LD90-100 of Pseudomonas aeruginosa (ATCC 27853) (9×10^6 CFU/0.5 ml/mouse IV), and after 1 and 5 h Ex. 50 s.c.

[3] = test system: Pseudomonas aeruginosa P1021903; format: cell-based
Outline: as §1

[4] = test system: Pseudomonas aeruginosa IMP 1 Livermore 3140; format: cell-based
Outline: as §1

[5] = test system: Pseudomonas aeruginosa P1021913; format: cell-based
Outline: as §1

[6] = test system: Pseudomonas aeruginosa P8191900; format: cell-based
Outline: as §1

[7] = Plasma stability, human plasma; format: in vitro ADME
[8] = Plasma stability, rat plasma; format: in vitro ADME
[9] = average over the five P. aeruginosa strains, Mueller-Hinton broth

Compound	MIC P. aeruginosa ATCC 27853 (P. aeruginosa ATCC 27853; ATCC 27853) [µg/mL]	Average MIC (P. aeruginosa) [µg/mL]	Cytotoxicity GI50 Hela cells (HELA cells (Acc57)) [µM]	Hemolysis at 100 μg/ml [1]; 100 [%]	Dead ([2]; 2 × 1 mg/kg, after 1 and 5 h)	Survivors ([2]; 2 × 1 mg/kg, after 1 and 5 h)	MIC P. aeruginosa P1021903 ([3]; P1021903) [µg/mL]	MIC P. aeruginosa IMP1 Livermore 3140 ([4]; IMP 1 Livermore 3140) [µg/mL]	MIC P. aeruginosa P1021913 ([5]; P1021913) [µg/mL]	MIC P. aeruginosa P8191900 ([6]; P8191900) [µg/mL]	other results
CC[C@H](C)[C@@H]1NC(=O)[C@H](Cc2c[nH]c3ccccc23)NC(=O)[C@H]([C@@H](C)O)NC(=O)[C@@H]2CCCN2C(=O)[C@H]2CCCN2C(=O)[C@H](CCC(N)=O)NC(=O)[C@H](C)NC(=O)[C@H](CCN)NC(=O)[C@H](CCN)NC(=O)[C@H](Cc2c[nH]c3ccccc23)NC(=O)[C@H](CCN)NC(=O)[C@H](CCN)NC(=O)[C@H](CCCCN)NC(=O)[C@H](CCC(N)=O)NC1=O [Example 40] (cyclo(TWIQK[Dab][Dab]W[Dab][Dab]AQ[dP]P))	0.25 (≈ 0.153 µM)	0.55	50	0.7	2	4	0.50 (≈ 0.305 µM)	1.00 (≈ 0.611 µM)	0.50 (≈ 0.305 µM)	0.50 (≈ 0.305 µM)	Dead ([2]; 2 × 0.1 mg/kg, after 1 and 5 h): 6; Survivors ([2]; 2 × 0.1 mg/kg, after 1 and 5 h): 0; Dead ([2]; 2 × 0.3 mg/kg, after 1 and 5 h): 6; Survivors ([2]; 2 × 0.3 mg/kg, after 1 and 5 h): 0; Dead ([2]; 2 × 3 mg/kg, after 1 and 5 h): 0; Survivors ([2]; 2 × 3 mg/kg, after 1 and 5 h): 6; Dead ([2]; 2 × 10 mg/kg, after 1 and 5 h): 0; Survivors ([2]; 2 × 10 mg/kg, after 1 and 5 h): 6
Gentamycin [reference compound]	–	–	–	–	1	5	–	–	–	–	Dead ([2]; 1 mg/kg, 1 h after inoculation): 0; Survivors ([2]; 1 mg/kg, 1 h after inoculation): 6
CC[C@H](C)[C@@H]1NC(=O)[C@H](Cc2c[nH]c3ccccc23)NC(=O)[C@H]([C@@H](C)O)NC(=O)[C@@H]2CCCN2C(=O)[C@H]2CCCN2C(=O)[C@H](CCN)NC(=O)[C@H](C)NC(=O)[C@H](CCN)NC(=O)[C@H](CCN)NC(=O)[C@H](Cc2c[nH]c3ccccc23)NC(=O)[C@H](CCN)NC(=O)[C@H](CCN)NC(=O)[C@H](CCCCN)NC(=O)[C@H](CCCCN)NC1=O [Example 24] (cyclo(TWIKK[Dab][Dab]W[Dab][Dab]A[Dab][dP]P))	–	–	–	–	–	–	–	–	–	–	MIC P. aeruginosa ATCC 27853 (P. aeruginosa ATCC 27853; Mueller-Hinton broth): 0.05 µg/mL (≈ 0.0311 µM); Average MIC (P. aeruginosa; [9]): 0.14 µg/mL; Hemolysis at 100 μg/ml ([1]; 100 μg/ml of peptide): 0.1%; Stability human Plasma t1/2 [7]: 5 h; Stability rat Plasma t1/2 [8]: 5 h; MIC P. aeruginosa P1021903 ([3]; Mueller-Hinton broth): 0.08 µg/mL (≈ 0.0497 µM); MIC P. aeruginosa IMP1 Livermore 3140 ([4]; Mueller-Hinton broth): 0.24 µg/mL (≈ 0.149 µM); MIC P. aeruginosa P1021913 ([5]; Mueller-Hinton broth): 0.16 µg/mL (≈ 0.0994 µM); MIC P. aeruginosa P8191900 ([6]; Mueller-Hinton broth): 0.16 µg/mL (≈ 0.0994 µM)
Example 50: backbone-cyclized; P1-P12 Glu-Trp-Ile-Gln-Lys-Dab-Dab-Ser-Dab-Dab-Ala-Ser; template DPro-LPro; SEQ ID NO: 50 (cyclo(EWIQK[Dab][Dab]S[Dab][Dab]AS[dP]P); SMILES CC[C@H](C)[C@@H]1NC(=O)[C@H](Cc2c[nH]c3ccccc23)NC(=O)[C@H](CCC(=O)O)NC(=O)[C@@H]2CCCN2C(=O)[C@H]2CCCN2C(=O)[C@H](CO)NC(=O)[C@H](C)NC(=O)[C@H](CCN)NC(=O)[C@H](CCN)NC(=O)[C@H](CO)NC(=O)[C@H](CCN)NC(=O)[C@H](CCN)NC(=O)[C@H](CCCCN)NC(=O)[C@H](CCC(N)=O)NC1=O)	–	–	50	–	5	1	–	–	–	–	MIC P. aeruginosa ATCC 27853 (P. aeruginosa ATCC 27853; Mueller-Hinton broth): 0.09 µg/mL; Average MIC (P. aeruginosa; [9]): 0.56 µg/mL; Dead ([2]; 2 × 0.1 mg/kg, after 1 and 5 h): 6; Survivors ([2]; 2 × 0.1 mg/kg, after 1 and 5 h): 0; Dead ([2]; 2 × 0.3 mg/kg, after 1 and 5 h): 6; Survivors ([2]; 2 × 0.3 mg/kg, after 1 and 5 h): 0; Dead ([2]; 2 × 3 mg/kg, after 1 and 5 h): 3; Survivors ([2]; 2 × 3 mg/kg, after 1 and 5 h): 3; Dead ([2]; 2 × 10 mg/kg, after 1 and 5 h): 0; Survivors ([2]; 2 × 10 mg/kg, after 1 and 5 h): 6; MIC P. aeruginosa P1021903 ([3]; Mueller-Hinton broth): 0.06 µg/mL; MIC P. aeruginosa IMP1 Livermore 3140 ([4]; Mueller-Hinton broth): 2.00 µg/mL; MIC P. aeruginosa P1021913 ([5]; Mueller-Hinton broth): 0.50 µg/mL; MIC P. aeruginosa P8191900 ([6]; Mueller-Hinton broth): 0.13 µg/mL
CC[C@H](C)[C@@H]1NC(=O)[C@H](Cc2c[nH]c3ccccc23)NC(=O)[C@H]([C@@H](C)O)NC(=O)[C@@H]2CCCN2C(=O)[C@H]2CCCN2C(=O)[C@H](CCN)NC(=O)[C@@H]2CCCN2C(=O)[C@H](CCN)NC(=O)[C@H](CCN)NC(=O)[C@H](Cc2c[nH]c3ccccc23)NC(=O)[C@H](CCN)NC(=O)[C@H](CCN)NC(=O)[C@H](CCCCN)NC(=O)[C@H](CCN)NC1=O [Example 17] (cyclo(TWI[Dab]K[Dab][Dab]W[Dab][Dab]P[Dab][dP]P))	0.75 (≈ 0.467 µM)	>1	29	0.5	–	–	2.00 (≈ 1.24 µM)	>2	1.25 (≈ 0.778 µM)	1.50 (≈ 0.933 µM)	–
CC[C@H](C)[C@@H]1NC(=O)[C@H](Cc2c[nH]c3ccccc23)NC(=O)[C@H]([C@@H](C)O)NC(=O)[C@@H]2CCCN2C(=O)[C@H]2CCCN2C(=O)[C@H](CCN)NC(=O)[C@H](C)NC(=O)[C@H](CCN)NC(=O)[C@H](CCN)NC(=O)[C@H](Cc2c[nH]c3ccccc23)NC(=O)[C@H](Cc2c[nH]cn2)NC(=O)[C@H](CCN)NC(=O)[C@H](CCCCN)NC(=O)[C@H](CCN)NC1=O [Example 21] (cyclo(TWI[Dab]K[Dab]HW[Dab][Dab]A[Dab][dP]P))	0.09 (≈ 0.0556 µM)	0.40	50	0.4	–	–	0.21 (≈ 0.13 µM)	1.00 (≈ 0.618 µM)	0.31 (≈ 0.192 µM)	0.40 (≈ 0.247 µM)	–
CC[C@H](C)[C@@H]1NC(=O)[C@H](Cc2c[nH]c3ccccc23)NC(=O)[C@H]([C@@H](C)O)NC(=O)[C@@H]2CCCN2C(=O)[C@H]2CCCN2C(=O)[C@H](CCN)NC(=O)[C@H](C)NC(=O)[C@H](CCN)NC(=O)[C@H](CCN)NC(=O)[C@H](Cc2c[nH]c3ccccc23)NC(=O)[C@H](CCC(N)=O)NC(=O)[C@H](CCN)NC(=O)[C@H](CCCCN)NC(=O)[C@H](CCN)NC1=O [Example 39] (cyclo(TWI[Dab]K[Dab]QW[Dab][Dab]A[Dab][dP]P))	0.13 (≈ 0.0808 µM)	0.34	50	0.4	–	–	0.31 (≈ 0.193 µM)	0.75 (≈ 0.466 µM)	0.31 (≈ 0.193 µM)	0.21 (≈ 0.131 µM)	–
CC[C@H](C)[C@@H]1NC(=O)[C@H](Cc2c[nH]c3ccccc23)NC(=O)[C@H]([C@@H](C)O)NC(=O)[C@@H]2CCCN2C(=O)[C@H]2CCCN2C(=O)[C@H](CCN)NC(=O)[C@H](CCC(N)=O)NC(=O)[C@H](CCN)NC(=O)[C@H](CCN)NC(=O)[C@H](Cc2c[nH]c3ccccc23)NC(=O)[C@H](CCN)NC(=O)[C@H](CCN)NC(=O)[C@H](CCCCN)NC(=O)[C@H](CCN)NC1=O [Example 13] (cyclo(TWI[Dab]K[Dab][Dab]W[Dab][Dab]Q[Dab][dP]P))	0.21 (≈ 0.128 µM)	0.40	50	0.4	–	–	0.40 (≈ 0.244 µM)	0.75 (≈ 0.458 µM)	0.31 (≈ 0.189 µM)	0.30 (≈ 0.183 µM)	–
